Experimental findings from PubChem BioAssay (NCI) are described below.

Test in all cases: growth of human tumour cells (NCI), 48 h
Assay [1] has as its system 786-0 renal.
Assay [2] deals with ACHN renal.
Assay [3] has as its system A549 NSCLC.
For assay [4], the system named is HCC-2998 colon.
In assay [5] the test system is M14 melanoma.
The test system of assay [6] is CCRF-CEM leukemia.
Assay [7] deals with SN12C renal.
Assay [8] has as its system HT29 colon.
The subject of assay [9] is T-47D breast.
Assay [10] concerns RXF 393 renal.

“And” between values parts separate entries of the source, which are not always exact repeats. Identical values can stand only once.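 Method: 48-hour compound exposure of cells in 96-well plates, five concentrations, linear interpolation of endpoints. The concentration for 50% growth inhibition is given as GI50. TGI is the concentration that stops growth completely.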

`CC[Si](CC)(CC)OC1[C@@H](O[Si](CC)(CC)CC)[C@@H](CNC(=O)NC)O[C@H]1n1cnc2c(NC(=O)Nc3ccccc3)ncnc21` (stereo partly specified): the GI50 in assay [1] is 2.96 µM; in assay [2], 3.44 µM; in assay [3], 3.14 µM; in assay [4], 3.22 µM; in [5], 3.75 µM; in [6], 3.02 µM. The GI50 in assay [7] is 2.04 µM; in [8], 2.4 µM; in assay [9], 4.47 µM; in [10], 2.36 µM. In addition, the TGI in assay [1] is 10.7 µM; in assay [2], more than 100 µM; in assay [3] it was more than 100 µM; in assay [4], 16.2 µM; in [5], more than 100 µM; in [6] it was 9.18 µM. The TGI in assay [7] was 4.92 µM; in [8], 6.13 µM; in assay [9], more than 100 µM; in [10], 4.67 µM.

Take `C=C1C(O)C2CC(C)(C)C(=O)C2=C(CC(C)C)C12CC2` (stereo unspecified): the GI50 in assay [1] was more than 100 µM; in assay [2], more than 100 µM; in assay [3] it was more than 100 µM; in assay [4] it was more than 100 µM; in assay [5], more than 100 µM; in assay [6], 98.1 µM. Besides, the GI50 in assay [7], in assay [8], in assay [9] and in assay [10] was more than 100 µM throughout. For the same compound, the TGI in assay [1], in assay [2], in [3], in assay [4], in [5] and in assay [6] was more than 100 µM each time. In addition, the TGI in [7], in assay [8], in assay [9] and in [10] was more than 100 µM throughout.

Turning to `COc1cc(/C=C/c2ccnc3ccccc23)cc(OC)c1OC`, the GI50 in assay [1] is 4.42 µM; in assay [2], 4.89 µM; in [3], 3.39 µM; in assay [4], 3.53 µM; in assay [5], 2.43 µM; in [6], 3.64 µM. Besides, the GI50 in assay [7] is 4.4 µM; in assay [8] it was 1.72 µM; in assay [9], 6.58 µM; in [10] it was 1.97 µM. Also, the TGI in [1] was 28.2 µM and 61.6 µM; in assay [2], 92 µM and > 100 µM; in assay [3] it was 31.1 µM and > 100 µM; in [4], > 100 µM and 38.4 µM; in assay [5] it was 91 µM and 13.8 µM; in assay [7], 31 µM and > 100 µM. Besides, the TGI was 80.4 µM and > 100 µM in assay [9]; 15.3 µM and 8.02 µM in assay [10].

Regarding `CCC(C)C(=O)OC1CCC=C2C=CC(C)C(CCC3CC(O)CC(=O)O3)C21` (stereo unspecified), the TGI is more than 65.9 µM in assay [1]; more than 88 µM in [2]; more than 100 µM in assay [3]; more than 100 µM in assay [4]; more than 27.5 µM in assay [5]; more than 100 µM in assay [6]. Moreover, the TGI in assay [7] was more than 100 µM; in assay [8] it was more than 100 µM; in assay [9], more than 100 µM; in assay [10], more than 80.6 µM.

With `O=C(O)c1[nH]c2c([N+](=O)[O-])cc([N+](=O)[O-])cc2c1C(=O)O`, the TGI in assay [1], in assay [2], in assay [3], in [4], in assay [5] and in assay [6] was more than 100 µM each time. Besides, the TGI in assay [7], in [8], in assay [9] and in assay [10] was more than 100 µM in each case.

On to `CCCCC[C@H]1C/C=C2/C(=O)C(Cl)=C[C@@H]2C/C=C\CCCC(=O)O1`, for which the GI50 in assay [1] is 0.47 µM; in [2], 0.361 µM; in [3] it was 0.625 µM; in [4] it was 0.475 µM; in assay [5], 0.422 µM; in assay [6], 0.113 µM. The GI50 in assay [7] was 0.333 µM; in [8] it was 0.461 µM; in assay [9] it was 0.554 µM; in assay [10], 0.457 µM. The TGI in assay [1] came to 0.888 µM; in [2], 0.704 µM; in assay [3] it was 1.87 µM; in [4], 0.855 µM; in [5], 0.999 µM; in assay [6] it was 2.93 µM. The TGI in [7] stood at 0.905 µM; in assay [8], 2.26 µM; in assay [9] it was 2.08 µM; in [10], 0.868 µM.

Consider `COc1ccc2nc3ccccc3c(NCc3ccccc3)c2c1`, for which the GI50 in [1] was 1.8 µM; in assay [2], 2.01 µM; in assay [3], 1.87 µM; in [4] it was 1.86 µM; in assay [5], 1.73 µM; in assay [6], 2.8 µM. In addition, the GI50 in assay [7] was 2.71 µM; in assay [8], 1.8 µM; in assay [9] it was 2.69 µM; in [10], 1.53 µM. Also, the TGI in assay [1] was 3.38 µM; in assay [2], 5.97 µM; in [3], 4.19 µM; in assay [4], 3.77 µM; in assay [5], 3.58 µM; in assay [6], 11.7 µM. The TGI is 10.5 µM in [7], 6.23 µM in [8], 8.89 µM in assay [9] and 3.13 µM in assay [10].

As to `c1ccc(/C(=N\Nc2nc3ccccc3s2)c2ccccn2)cc1`, the TGI was 24.4 µM in assay [1]; more than 28.8 µM in [2]; more than 100 µM in assay [3]; 46 µM in assay [4]; 22.6 µM in assay [5]; 1.07 µM in assay [6]. Moreover, the TGI came out at 39.8 µM in assay [7], 47.1 µM in [8], 52.5 µM in assay [9] and 23.3 µM in assay [10].

With `COc1cccc(-c2nn(-c3ccccc3)cc2-c2ccnc(NCCCNS(=O)(=O)c3ccc(C(F)(F)F)cc3)c2)c1`, the GI50 in assay [1] is 4.6 µM; in assay [2], 4.8 µM; in assay [3] it was 6.65 µM; in assay [4], 5.22 µM; in assay [5], 4.46 µM; in assay [6], 5.07 µM. Further, the GI50 is 8.4 µM in assay [7], 3.21 µM in assay [8], 2.54 µM in assay [9] and 3.01 µM in [10]. Further, the TGI in [1], in [2], in assay [3], in [4], in assay [5] and in assay [6] was more than 100 µM throughout. Moreover, the TGI in [7] was more than 100 µM; in assay [9] it was 9.11 µM; in assay [10] it was more than 100 µM.

For `O=C(CC1Sc2ccccc2NC1=O)NNc1ccc(F)cc1` (stereo unspecified), the GI50 is 29.5 µM in [1]; 7.07 µM in assay [2]; 74 µM in assay [3]; 30.9 µM in assay [4]; 5.5 µM in assay [5]; more than 100 µM in assay [6]. In addition, the GI50 is 22.1 µM in assay [7], more than 100 µM in assay [8], 14.6 µM in [9] and more than 100 µM in [10]. The TGI in [1], in assay [2], in assay [3], in assay [4], in assay [5] and in assay [6] was more than 100 µM throughout. Moreover, the TGI in assay [7], in assay [8], in [9] and in assay [10] was more than 100 µM throughout.

Turning to `C(=C\c1ccc(OCC2CO2)cc1)/C1=NCOC1` (stereo unspecified), the GI50 in [1] was 17.6 µM; in [2] it was 5.47 µM; in [3], 7.51 µM; in [4], 7.43 µM; in assay [5], 14.5 µM; in assay [6], 2.89 µM. Besides, the GI50 was 10.6 µM in [7], 6.73 µM in assay [8], 3.57 µM in assay [9] and 2.05 µM in assay [10]. In addition, the TGI in assay [1] turned out to be 53.4 µM; in [2], 19.5 µM; in [3] it was 39.1 µM; in assay [4] it was 22.6 µM; in [5] it was 88.5 µM; in [6] it was 13.3 µM. In addition, the TGI in assay [7] was determined as 25.9 µM; in [8], 25.8 µM; in assay [9], 18.6 µM; in assay [10] it was 6.34 µM.

With `O=c1[nH]c(=O)n(C2OC(CO)C(O)C2O)cc1F` (stereo unspecified), the GI50 is 0.0462 µM in assay [1]; 0.0236 µM in assay [2]; 0.0346 µM in assay [4]; 0.0819 µM in assay [5]; 0.0369 µM in assay [6]; 0.0697 µM in assay [8]. In assay [10], the GI50 is 4e-05 µM. In addition, the TGI was 21.1 µM in assay [1]; 21 µM in assay [2]; 38.4 µM in assay [3]; 54.2 µM in assay [4]; more than 75.8 µM in assay [5]; more than 100 µM in assay [6]. The TGI in assay [7] is more than 100 µM; in assay [8] it was more than 100 µM; in [9], more than 100 µM; in [10], 2.45 µM.

With `CCC(=C(c1ccc(OCCN2CCCC2)cc1)c1ccc(OCCN2CCCC2)cc1)c1ccc(Cl)cc1`, the GI50 in [1] is 0.591 µM; in [2], 0.585 µM; in [3], 0.594 µM; in [4] it was 0.566 µM; in assay [5], 0.629 µM; in assay [6], 0.601 µM. Moreover, the GI50 in [7] was 0.572 µM; in assay [8], 0.511 µM; in assay [9] it was 0.498 µM; in [10] it was 0.545 µM. Also, the TGI in [1] was 1.1 µM; in assay [2], 1.06 µM; in [3], 1.21 µM; in [4], 1.07 µM; in assay [5] it was 1.18 µM; in assay [6] it was 1.58 µM. In addition, the TGI turned out to be 1.1 µM in assay [7], 1.15 µM in [8], 1.21 µM in assay [9] and 1.04 µM in [10].

Consider `COc1ccc2c(c1)C(=O)c1c-2n(CCCCl)c(=O)c2cc(N)ccc12`, for which the GI50 in assay [1] is more than 63.7 µM; in assay [2], 98.4 µM; in assay [3] it was more than 100 µM; in [4], more than 100 µM; in [5] it was more than 100 µM; in [6], more than 44.5 µM. Also, the GI50 in assay [8] was more than 100 µM; in assay [9] it was more than 100 µM; in assay [10], more than 57.3 µM. Further, the TGI in assay [1] was more than 100 µM; in assay [2] it was more than 100 µM; in assay [3] it was more than 100 µM; in [4], more than 100 µM; in [5], more than 100 µM; in assay [6], more than 59.4 µM. Further, the TGI in [7] is 97.4 µM; in assay [8] it was more than 100 µM; in [9], more than 100 µM; in assay [10], more than 100 µM.

Consider `CC1(C)CC[C@]2(CO)CC[C@]3(C)C(=CC[C@@H]4[C@@]5(C)CCNCC(C)(C)[C@@H]5CC[C@]43C)[C@@H]2C1`, for which the GI50 in [1] is 3.8 µM; in [2], 4.91 µM; in assay [3], 8.23 µM; in [4], 1.89 µM; in assay [5] it was 2.05 µM; in assay [6] it was 5.47 µM. Also, the GI50 in assay [7] is 4.08 µM; in [8], 2.69 µM; in [9] it was 2.42 µM; in [10], 1.95 µM. The TGI in [1] was 15 µM; in assay [2], 16.6 µM; in assay [3] it was 22.7 µM; in assay [4], 4.07 µM; in [5], 4.14 µM; in assay [6] it was 23.1 µM. The TGI was 16.9 µM in assay [7], 9.4 µM in [8], 11.2 µM in assay [9] and 4.83 µM in [10].

Turning to `NC(Cc1c[nH]c2cccc(F)c12)C(=O)O` (stereo unspecified), the GI50 in [1] was 124 µM; in assay [2] it was 679 µM; in assay [3] it was 98.7 µM and 679 µM; in assay [4], 73.2 µM and 694 µM; in [5], 59.9 µM and 590 µM; in assay [7], 959 µM. Besides, the GI50 in [8] was 36.5 µM and 300 µM; in assay [10], 1320 µM. Also, the TGI in assay [1] was 894 µM; in assay [2], more than 4500 µM; in [3] it was more than 4500 µM; in assay [4], 2400 µM; in [5], more than 4500 µM; in assay [6], more than 4500 µM. In addition, the TGI in assay [7] was more than 4500 µM; in assay [8], 2620 µM; in [9], more than 4500 µM; in [10] it was more than 4500 µM.
